EP0975351B1, “TREATMENT OF MULTIPLE SCLEROSIS THROUGH INGESTION OF COPOLYMER-1” (YEDA RESEARCH AND DEVELOPMENT CO. LTD., priority 1997, dated 1998)

Experiments:
[1] = test system: T-cell line derived from spleens of glatiramer acetate fed rats; test: Cytokine assay of T-cell line from spleens of fed rats (ELISA); format: cell-based; conditions: rat line cultured with glatiramer acetate as antigen (Figure 6)
Procedure: Isolation of glatiramer acetate specific T cell lines - Lewis rats were fed 5 times with 1 mg glatiramer acetate and (SJUJ x BALB/c)F, mice 7 times with 250 µg glatiramer acetate, at intervals of 2-3 days. Four to twelve days after the last feeding animals were sacrificed and their spleens removed.
Spleen cells of 3 animals were pooled and incubated (50 x 10^6/plate) with glatiramer acetate (500 µg) in medium containing 1 % autologous serum for 4 days. Every 14-21 days cells (4-6 x 10^6/plate) were restimulated by 3 days exposure to copolymer-1 (500 µg) presented on syngeneic irradiated (3000 rad) rat thymocytes (100 x 10^6/plate) or mouse splenocytes (50 x 10^6/plate). Stimulation was followed by propagation in 10% supernatant of Con A activated normal mouse spleen cells as T cell growth factor (TCGF).
Cytokine Assay - T cells of rat line (0.5 x 10^6/ml) were incubated with irradiated thymocytes (10 x 10^6) with or without the indicated antigen (50µg glatiramer acetate; 5µg Con A). Cells were cultured for 24 hours in RPMI 1640 supplemented with 10% FCS for IL-2, TNFα, IL-4 and IL-10-measurements and in serum free medium - DCCM-1 (Biological Industries, Kibbutz Beit Haemek, Israel) for 72 hours for TGFβ measurement.
Cytokine levels in supernatants were measured in a quantitative ELISA using pairs of monoclonal antibodies specific for the corresponding cytokines.

[2] = test system: PBL; test: Flow cytometry of peripheral blood lymphocytes (PBL); format: in vivo, Rhesus Monkeys; design: CD4+ / CD8+ / CD4+ CD45RA+ / CD8+ CD45RA+: unit not given here; conditions: for Ratio: CD4+/CD8+
Procedure: 3 Rhesus monkeys were treated as follows: One monkey served as control and was fed with placebo capsules (containing 5mg glucose only). The second and third monkeys were fed with glatiramer acetate containing capsules at a dose of 1mg/feeding and 20mg/feeding, respectively. Animals were fed every other day for a total of 10 feedings: 5 times prior to disease induction (immunization on day 0) and then 5 times after immunization.
Disease was induced on day 0 by an intradermal injection of 8mg bovine - MBP and 3 mg H37Ra M. tuberculosis in FCA into the hind footpads, total injected volume between 0.1 and 0.15 ml per footpad. The animals were followed for clinical manifestations of EAE, a variety of serum and CSF immunological markers and spinal cord and cranial MRI's.
The Epics C flow cytometer was used to analyze both peripheral blood lymphocytes (PBL) and cerebral spinal fluid (CSF) collected from each monkey. The red blood cells were lysed and the remaining white blood cells (WBCs) were washed and stained using standard methods with appropriate reagents. Tables 3 and 4 below show the data from staining PBL and CSF WBCs from the three animals in this Example.

[3] = test system: experimental allergic encephalomyelitis (EAE); conditions: EAE induced by MSCH, MBP, PLP, MOG in a variety of species; cited from earlier work
[4] = animal 18497, 1mg/dose, day +13
[5] = animal 18497, 1mg/dose, day +20
[6] = animal 18497, 1mg/dose, day +27
[7] = animal 18498, 20 mg/dose, day +6
[8] = animal 18498, 20 mg/dose, day +13
[9] = animal 18498, 20 mg/dose, day +20
[10] = animal 18498, 20 mg/dose, day +27
[11] = animal 18498, 20 mg/dose, day -1

glatiramer acetate
cytokine secretion response of T-cell line [1]: secreted IL-2, some IL-10 and TGFβ but not TNFα or IL-4
Ratio ([2]; animal 18497, 1mg/dose, day +6): 1.26
Ratio [2, 4]: 1.09
Ratio [2, 5]: 1.28
Ratio [2, 6]: 1.3
Ratio ([2]; animal 18497, 1mg/dose, day -1): 0.97
Ratio [2, 7]: 0.88
Ratio [2, 8]: 0.89
Ratio [2, 9]: 0.47
Ratio [2, 10]: 0.71
Ratio [2, 11]: 0.93
CD4+ ([2]; animal 18497, 1mg/dose, day +6): 39
CD4+ CD45RA+ ([2]; animal 18497, 1mg/dose, day +6): 24
CD8+ ([2]; animal 18497, 1mg/dose, day +6): 31
CD8+ CD45RA+ ([2]; animal 18497, 1mg/dose, day +6): 29
CD4+ [2, 4]: 37
CD4+ CD45RA+ [2, 4]: 16
CD8+ [2, 4]: 34
CD8+ CD45RA+ [2, 4]: 29
CD4+ [2, 5]: 41
CD4+ CD45RA+ [2, 5]: 18
CD8+ [2, 5]: 32
CD8+ CD45RA+ [2, 5]: 25
CD4+ [2, 6]: 35
CD4+ CD45RA+ [2, 6]: 12
CD8+ [2, 6]: 27
CD8+ CD45RA+ [2, 6]: 18
CD4+ ([2]; animal 18497, 1mg/dose, day -1): 35
CD4+ CD45RA+ ([2]; animal 18497, 1mg/dose, day -1): 21
CD8+ ([2]; animal 18497, 1mg/dose, day -1): 36
CD8+ CD45RA+ ([2]; animal 18497, 1mg/dose, day -1): 33
CD4+ [2, 7]: 37
CD4+ CD45RA+ [2, 7]: 23
CD8+ [2, 7]: 42
CD8+ CD45RA+ [2, 7]: 32
CD4+ [2, 8]: 41
CD4+ CD45RA+ [2, 8]: 24
CD8+ [2, 8]: 46
CD8+ CD45RA+ [2, 8]: 37
CD4+ [2, 9]: 27
CD4+ CD45RA+ [2, 9]: 12
CD8+ [2, 9]: 57
CD8+ CD45RA+ [2, 9]: 41
CD4+ [2, 10]: 37
CD4+ CD45RA+ [2, 10]: 22
CD8+ [2, 10]: 52
CD8+ CD45RA+ [2, 10]: 41
CD4+ [2, 11]: 37
CD4+ CD45RA+ [2, 11]: 23
CD8+ [2, 11]: 40
CD8+ CD45RA+ [2, 11]: 32
suppression of EAE [3]: suppress experimental allergic encephalomyelitis (EAE)
